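The compound was tested at five concentrations on cells cultured in 96-well plates, with a 48-hour exposure period. TGI: total growth inhibition.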
Assays:
Assay in all cases: growth of human tumour cells (NCI), 48 h
NCI-H460 lung = system: NCI-H460 lung
MDA-MB-435 = system: MDA-MB-435
BT-549 breast = system: BT-549 breast
A498 renal = system: A498 renal
CAKI-1 renal = system: CAKI-1 renal
U251 CNS = system: U251 CNS
DU-145 prostate = system: DU-145 prostate
HCT-116 colon = system: HCT-116 colon
HCT-15 colon = system: HCT-15 colon
MDA-N = system: MDA-N
SF-295 CNS = system: SF-295 CNS
T-47D breast = system: T-47D breast
M14 melanoma = system: M14 melanoma
EKVX NSCLC = system: EKVX NSCLC
SK-MEL-28 melanoma = system: SK-MEL-28 melanoma
SN12C renal = system: SN12C renal
PC-3 prostate = system: PC-3 prostate
NCI-H23 lung = system: NCI-H23 lung
TK-10 renal = system: TK-10 renal
SNB-19 CNS = system: SNB-19 CNS
ACHN renal = system: ACHN renal
UACC-257 melanoma = system: UACC-257 melanoma
NCI-H522 lung = system: NCI-H522 lung
SF-268 CNS = system: SF-268 CNS
OVCAR-5 ovarian = system: OVCAR-5 ovarian
NCI-H226 lung = system: NCI-H226 lung
HOP-62 NSCLC = system: HOP-62 NSCLC
OVCAR-4 ovarian = system: OVCAR-4 ovarian
SK-MEL-2 melanoma = system: SK-MEL-2 melanoma
SK-OV-3 ovarian = system: SK-OV-3 ovarian
RPMI-8226 leukemia = system: RPMI-8226 leukemia
SK-MEL-5 melanoma = system: SK-MEL-5 melanoma
KM12 colon = system: KM12 colon
SNB-75 CNS = system: SNB-75 CNS
COLO 205 colon = system: COLO 205 colon
NCI/ADR-RES ovarian = system: NCI/ADR-RES ovarian
MALME-3M melanoma = system: MALME-3M melanoma
HOP-92 NSCLC = system: HOP-92 NSCLC
K-562 leukemia = system: K-562 leukemia
786-0 renal = system: 786-0 renal
MCF7 breast = system: MCF7 breast
A549 NSCLC = system: A549 NSCLC
MDA-MB-231 breast = system: MDA-MB-231 breast
HCC-2998 colon = system: HCC-2998 colon
UACC-62 melanoma = system: UACC-62 melanoma
OVCAR-3 ovarian = system: OVCAR-3 ovarian
UO-31 renal = system: UO-31 renal
CCRF-CEM leukemia = system: CCRF-CEM leukemia
SR leukemia = system: SR leukemia
LOX IMVI melanoma = system: LOX IMVI melanoma
SF-539 CNS = system: SF-539 CNS
HT29 colon = system: HT29 colon
MOLT-4 leukemia = system: MOLT-4 leukemia
SW-620 colon = system: SW-620 colon
OVCAR-8 ovarian = system: OVCAR-8 ovarian
IGROV1 ovarian = system: IGROV1 ovarian
RXF 393 renal = system: RXF 393 renal

Measured: TGI

CC(C)(C)c1cc(COc2cc(COc3ccc(-c4c5c(nc6c4CCc4ccc(-c7c8ccccc8nc8ccccc78)cc4-6)-c4cc(-c6c7ccccc7nc7ccccc67)ccc4CC5)cc3)cc(OCc3cc(C(C)(C)C)cc(C(C)(C)C)c3)c2)cc(C(C)(C)C)c1
> 100 µM: NCI-H460 lung | MDA-MB-435 | BT-549 breast | A498 renal | CAKI-1 renal | U251 CNS | DU-145 prostate | HCT-116 colon | HCT-15 colon | MDA-N | SF-295 CNS | T-47D breast | M14 melanoma | EKVX NSCLC | SK-MEL-28 melanoma | SN12C renal | PC-3 prostate | NCI-H23 lung | TK-10 renal | SNB-19 CNS | ACHN renal | UACC-257 melanoma | NCI-H522 lung | SF-268 CNS | OVCAR-5 ovarian | NCI-H226 lung | HOP-62 NSCLC | OVCAR-4 ovarian | SK-MEL-2 melanoma | SK-OV-3 ovarian | RPMI-8226 leukemia | SK-MEL-5 melanoma | KM12 colon | SNB-75 CNS | COLO 205 colon | NCI/ADR-RES ovarian | MALME-3M melanoma | HOP-92 NSCLC | K-562 leukemia | 786-0 renal | MCF7 breast | A549 NSCLC | MDA-MB-231 breast | HCC-2998 colon | UACC-62 melanoma | OVCAR-3 ovarian | UO-31 renal

CCOC(=O)c1c(O)cc(=O)[nH]c1N1CCOCC1
> 100 µM: NCI-H460 lung | MDA-MB-435 | BT-549 breast | A498 renal | CAKI-1 renal | U251 CNS | CCRF-CEM leukemia | DU-145 prostate | SR leukemia | HCT-116 colon | HCT-15 colon | MDA-N | SF-295 CNS | T-47D breast | M14 melanoma | EKVX NSCLC | LOX IMVI melanoma | SK-MEL-28 melanoma | SN12C renal | PC-3 prostate | NCI-H23 lung | SNB-19 CNS | ACHN renal | UACC-257 melanoma | OVCAR-5 ovarian | NCI-H226 lung | HOP-62 NSCLC | SK-MEL-2 melanoma | SK-OV-3 ovarian | RPMI-8226 leukemia | SK-MEL-5 melanoma | KM12 colon | SNB-75 CNS | SF-539 CNS | HT29 colon | MOLT-4 leukemia | COLO 205 colon | NCI/ADR-RES ovarian | SW-620 colon | HOP-92 NSCLC | OVCAR-8 ovarian | K-562 leukemia | IGROV1 ovarian | 786-0 renal | MCF7 breast | A549 NSCLC | HCC-2998 colon | UACC-62 melanoma | OVCAR-3 ovarian | UO-31 renal

CCN(C(=O)N[C@@H](Cc1ccccc1)C(=O)N[C@@H](CC(C)C)C(=O)NC)c1ccccc1
> 100 µM: NCI-H460 lung | MDA-MB-435 | BT-549 breast | CAKI-1 renal | U251 CNS | CCRF-CEM leukemia | DU-145 prostate | HCT-116 colon | HCT-15 colon | MDA-N | SF-295 CNS | T-47D breast | M14 melanoma | EKVX NSCLC | LOX IMVI melanoma | SK-MEL-28 melanoma | SN12C renal | PC-3 prostate | NCI-H23 lung | TK-10 renal | SNB-19 CNS | ACHN renal | UACC-257 melanoma | NCI-H522 lung | OVCAR-5 ovarian | NCI-H226 lung | HOP-62 NSCLC | OVCAR-4 ovarian | SK-MEL-2 melanoma | SK-OV-3 ovarian | RPMI-8226 leukemia | SK-MEL-5 melanoma | KM12 colon | SNB-75 CNS | SF-539 CNS | HT29 colon | MOLT-4 leukemia | COLO 205 colon | NCI/ADR-RES ovarian | MALME-3M melanoma | SW-620 colon | HOP-92 NSCLC | OVCAR-8 ovarian | K-562 leukemia | IGROV1 ovarian | 786-0 renal | MCF7 breast | A549 NSCLC | MDA-MB-231 breast | RXF 393 renal | HCC-2998 colon | UACC-62 melanoma | OVCAR-3 ovarian | UO-31 renal
